The text below walks through data of patent US10610487B2, “Salts of active ingredients with polymeric counterions” (BASF SE, priority 2015, dated 2020).

For data set [1] the following is noted: CD water, 100 mg haloperidol per 250 ml, hard gelatine capsule.
A short description of another data set: physchem. To be noted: thermodynamic from solid.

In brackets after ≈: the same amount, converted by molar mass. Read-outs that look alike come from different tables or passages of the source.

As to `O=C(CCCN1CCC(O)(c2ccc(Cl)cc2)CC1)c1ccc(F)cc1` [Haloperidol, haloperidol], the Release of haloperidol was 0.0% in data set [1] (0 min); 0.1% in data set [1] (2 min); 0.2% in data set [1] (4 min); 0.3% in data set [1] (6 min); 0.4% in data set [1] (8 min); 0.6% in data set [1] (10 min). In addition, the Release of haloperidol in data set [1] (30 min) is on record as 1.5%; in data set [1] (60 min) it was 1.8%; in data set [1] (120 min) it was 2.3%. The thermodynamic solubility at 72 h in “physchem” (simulated gastric fluid) is 600 µg/mL (≈ 1600 µM); in “physchem” (water), 2.6 µg/mL (≈ 6.92 µM).

`CN(C)C(=O)C(CCN1CCC(O)(c2ccc(Cl)cc2)CC1)(c1ccccc1)c1ccccc1` [Loperamide, loperamide]: in the data set “physchem” (water), the thermodynamic solubility at 72 h is 72.3 µg/mL (≈ 152 µM).

By solubility (thermodynamic) is commonly meant solubility found after equilibrating the solid with the medium.
